From the NIST ThermoML archive (doi:10.1016/j.fluid.2005.06.022)
Numbers after ± are expanded uncertainties.

What was measured:
[1] = Liquid; for molar volume: 101.33 kPa
[2] = refractive index (Na D-line) (dimensionless); details: 101.33 kPa, Liquid, Standard Abbe refractometry

Compound	molar volume ([1]; 293.15 K)	refractive index ([2]; 293.15 K)	molar volume ([1]; 298.15 K)	refractive index ([2]; 298.15 K)	also measured
N#Cc1cnccn1 [2-cyanopyrazine]	8.952e-05 ± 5.2e-07 m3/mol	1.534 ± 0.0012	–	–	vapor or sublimation pressure ([1]; 476.05 K): 94.7 ± 4.8 kPa
C=CC#N [acrylonitrile]	–	–	6.629e-05 ± 3.6e-07 m3/mol	1.3888 ± 0.0012	vapor or sublimation pressure ([1]; 348.55 K): 94.7 ± 4.8 kPa
C1CCCCC1 [cyclohexane]	–	–	0.0001087 ± 5.9e-07 m3/mol	1.4235 ± 0.0012	vapor or sublimation pressure ([1]; 351.85 K): 94.7 ± 4.8 kPa
ClC(Cl)(Cl)Cl [tetrachloromethane]	–	–	9.708e-05 ± 6e-07 m3/mol	1.4574 ± 0.0012	vapor or sublimation pressure ([1]; 347.85 K): 94.7 ± 4.8 kPa

More lines, main results first:

molar volume ([1]; 293.15 K)	refractive index ([2]; 293.15 K)	Compound	molar volume ([1]; 298.15 K)	refractive index ([2]; 298.15 K)	also measured
9.138e-05 ± 5.1e-07 m3/mol	1.505 ± 0.0012	Cc1cnccn1 [2-methylpyrazine]	–	–	vapor or sublimation pressure ([1]; 396.65 K): 94.7 ± 4.8 kPa
0.0001038 ± 5.7e-07 m3/mol	1.451 ± 0.0012	O=C1CCCCC1 [cyclohexanone]	–	–	vapor or sublimation pressure ([1]; 426.35 K): 94.7 ± 4.8 kPa; vapor or sublimation pressure ([1]; 426.85 K): 94.7 ± 4.8 kPa
